This passage reports IC50 results from ChEMBL document CHEMBL3396968, “Isolation and cytotoxicity evaluation of taxanes from the barks of Taxus wallichiana var. mairei” (Bioorg Med Chem Lett, 2015).

The test system of assay [1] is A549. Briefly: Antiproliferative activity against human A549 cells assessed as growth inhibition after 48 hrs by sulforhodamine B assay. It counts as functional, cell-based. The conditions noted are these: A549, 48 h.
Assay [2] deals with MCF7. Briefly: Antiproliferative activity against human MCF7 cells assessed as growth inhibition after 48 hrs by sulforhodamine B assay. The assay is classed as functional, cell-based. The following applies: MCF7, 48 h.
The test system of assay [3] is A2780. The experiment in a line: Antiproliferative activity against human A2780 cells assessed as growth inhibition after 48 hrs by sulforhodamine B assay. The assay is classed as functional, cell-based. The conditions noted are these: A2780, 48 h.
A short description of assay [4]: Antiproliferative activity against human A2780/TAX cells assessed as growth inhibition after 48 hrs by sulforhodamine B assay. The assay is classed as functional, cell-based.
Assay [5] in a line: Antiproliferative activity against human HCT8 cells assessed as growth inhibition after 48 hrs by sulforhodamine B assay. It counts as functional, cell-based. The following applies: HCT-8, 48 h.
Assay [6] in a line: Antiproliferative activity against human HCT8/VCT cells assessed as growth inhibition after 48 hrs by sulforhodamine B assay. It counts as functional, cell-based.
A short description of assay [7]: Antiproliferative activity against human A549/CDDP cells assessed as growth inhibition after 48 hrs by sulforhodamine B assay. It counts as functional, cell-based. The following applies: A549, 48 h.
Assay [8] is described as follows: Antiproliferative activity against human MCF7/DX cells assessed as growth inhibition after 48 hrs by sulforhodamine B assay. It counts as functional, cell-based.
A short description of assay [9]: Antiproliferative activity against mouse NIH/3T3 cells assessed as growth inhibition after 48 hrs by sulforhodamine B assay. The assay is classed as cell-based. The following applies: NIH3T3, 48 h.
In assay [10] the test system is SW480. The experiment in a line: Antiproliferative activity against human SW480 cells assessed as growth inhibition after 48 hrs by sulforhodamine B assay. The assay is classed as functional, cell-based. The following applies: SW480, 48 h.
The subject of assay [11] is HepG2. The experiment in a line: Antiproliferative activity against human HepG2 cells assessed as growth inhibition after 48 hrs by sulforhodamine B assay. It counts as functional, cell-based. The conditions noted are these: HepG2, 48 h.

The structures appear in SMILES notation.

As to `CC(=O)O[C@H]1C(=O)[C@@]2(C)[C@H]([C@H](OC(=O)c3ccccc3)[C@]3(O)C[C@H](OC(=O)[C@H](O)[C@@H](NC(=O)OC(C)(C)C)c4ccccc4)C(C)=C1C3(C)C)[C@]1(OC(C)=O)CO[C@@H]1C[C@@H]2O`, the IC50 in [1] was less than 0.002 µM; in [2], less than 0.002 µM; in assay [3] it was less than 0.002 µM; in [4], 0.42 µM; in assay [5], less than 0.002 µM; in [6], 0.89 µM. Moreover, the IC50 in [7], in [8] and in assay [9] was less than 0.002 µM in each case.

Turning to `C/C=C(\C)C(=O)N[C@@H](c1ccccc1)[C@@H](O)C(=O)O[C@H]1C[C@@]2(O)[C@@H](OC(=O)c3ccccc3)[C@@H]3[C@]4(OC(C)=O)CO[C@@H]4C[C@H](O[C@@H]4OC[C@@H](O)[C@H](O)[C@H]4O)[C@@]3(C)C(=O)[C@H](O)C(=C1C)C2(C)C`, the IC50 in [1] is 1.9 µM; in [10], 20 µM; in [2], 0.14 µM; in assay [11], 3.9 µM; in [3], 3.5 µM; in [4], greater than 25 µM. Moreover, the IC50 in assay [5] is greater than 25 µM; in assay [6], greater than 25 µM; in assay [7], 3.1 µM; in assay [8], greater than 25 µM; in assay [9], greater than 25 µM.

Regarding `CC(=O)O[C@H]1C(=O)[C@@]2(C)[C@H]([C@H](OC(=O)c3ccccc3)[C@]3(O)C[C@H](OC(=O)[C@H](O)[C@@H](NC(=O)c4ccccc4)c4ccccc4)C(C)=C1C3(C)C)[C@]1(OC(C)=O)CO[C@@H]1C[C@@H]2O` [PACLITAXEL], the IC50 came out at 0.021 µM in [10]; 0.009 µM in assay [11]; 4.4 µM in assay [4]; 0.066 µM in assay [5]; 6.2 µM in [8]; 0.58 µM in [9].

As for `CC(=O)O[C@H]1C(=O)[C@]2(C)[C@@H](O[C@@H]3OC[C@@H](O)[C@H](O)[C@H]3O)C[C@H]3OC[C@@]3(OC(C)=O)[C@H]2[C@H](OC(=O)c2ccccc2)[C@]2(O)C[C@H](OC(=O)[C@H](O)[C@@H](NC(=O)c3ccccc3)c3ccccc3)C(C)=C1C2(C)C`, the IC50 in assay [1] was 0.39 µM; in assay [10] it was 5.6 µM; in [2] it was 0.16 µM; in [11], 1.2 µM; in assay [3], 0.85 µM; in [4], greater than 25 µM. In addition, the IC50 in assay [5] was 5.9 µM; in [6] it was greater than 25 µM; in assay [7], 0.92 µM; in [8] it was greater than 25 µM; in assay [9], greater than 25 µM.

`CC(=O)O[C@@]12CO[C@@H]1C[C@H](O[C@@H]1OC[C@@H](O)[C@H](O)[C@H]1O)[C@@]1(C)C(=O)[C@H](O)C3=C(C)[C@@H](OC(=O)[C@H](O)[C@@H](NC(=O)c4ccccc4)c4ccccc4)C[C@@](O)([C@@H](OC(=O)c4ccccc4)[C@H]21)C3(C)C`: the IC50 in assay [1] was 2.1 µM; in assay [10], 16 µM; in assay [2], 0.8 µM; in [11], 3 µM; in assay [3], 1.6 µM; in assay [4], greater than 25 µM. The IC50 in [5] is 0.26 µM; in assay [6], greater than 25 µM; in [7], 2.5 µM; in [8], 1.4 µM; in assay [9], greater than 25 µM.

For `CC(=O)O[C@@]12CO[C@@H]1C[C@H](O)[C@@]1(C)C(=O)[C@H](O)C3=C(C)[C@@H](O)C[C@@](O)([C@@H](OC(=O)c4ccccc4)[C@H]21)C3(C)C`, the IC50 in [1] is 21 µM; in assay [2] it was 17 µM; in assay [3], greater than 25 µM; in [4] it was 16 µM; in assay [5], greater than 25 µM; in assay [6], greater than 25 µM. Further, the IC50 was 25 µM in assay [7], greater than 25 µM in assay [8] and greater than 25 µM in assay [9].

For the compound `C=C1[C@@H](O[C@@H]2O[C@H](CO)[C@@H](O)[C@H](O)[C@H]2O)C[C@H](OC(C)=O)[C@]2(C)[C@@H]1C[C@@H]1C[C@H](O)C(C)=C([C@@H](OC(C)=O)[C@@H]2OC(C)=O)C1(C)C`, the IC50 in assay [1] was 2.2 µM; in [10], 16 µM; in [2] it was greater than 25 µM; in assay [11], 6.1 µM; in [3], greater than 25 µM; in assay [4] it was greater than 25 µM. The IC50 in assay [5], in [6], in assay [7], in assay [8] and in assay [9] was greater than 25 µM throughout.

Regarding `CC(=O)O[C@H]1C(=O)[C@@]2(C)[C@H]([C@H](OC(=O)c3ccccc3)[C@]3(O)C[C@H](O)C(C)=C1C3(C)C)[C@]1(OC(C)=O)CO[C@@H]1C[C@@H]2O` [BACCATIN III], the IC50 in assay [1] was greater than 25 µM; in assay [2], 7.4 µM; in assay [3], greater than 25 µM; in assay [4] it was greater than 25 µM; in [5], 12 µM; in assay [6], greater than 25 µM. The half-maximal inhibitory concentration (IC50) in assay [7] was 24 µM; in [8], greater than 25 µM; in [9] it was greater than 25 µM.

With `CC(=O)O[C@@]12CO[C@@H]1C[C@@H](O)[C@@]1(C)C(=O)[C@H](O)C3=C(C)[C@@H](OC(=O)[C@H](O)[C@@H](NC(=O)c4ccccc4)c4ccccc4)C[C@@](O)([C@@H](OC(=O)c4ccccc4)[C@H]21)C3(C)C`, the IC50 was determined as 0.011 µM in assay [1]; 0.059 µM in [10]; 0.012 µM in [2]; 0.095 µM in assay [11]; 0.03 µM in assay [3]; 7.2 µM in assay [4]. Moreover, the IC50 in assay [5] is 13 µM; in [6] it was 11 µM; in assay [7], 0.024 µM; in assay [8] it was greater than 25 µM; in assay [9] it was 2.2 µM.

Consider `C/C=C(\C)C(=O)N[C@@H](c1ccccc1)[C@@H](O)C(=O)O[C@H]1C[C@@]2(O)[C@@H](OC(=O)c3ccccc3)[C@@H]3[C@]4(OC(C)=O)CO[C@@H]4C[C@H](O)[C@@]3(C)C(=O)[C@H](OC(C)=O)C(=C1C)C2(C)C` [CEPHALOMANNINE], for which the IC50 in assay [1] was 0.008 µM; in assay [10], 0.033 µM; in assay [2] it was 0.004 µM; in [11], 0.02 µM; in assay [3] it was 0.013 µM; in assay [4], 4.9 µM. The IC50 in assay [5] is greater than 25 µM; in [6] it was 7.2 µM; in [7], 0.005 µM; in assay [8], 7 µM; in assay [9] it was 0.6 µM.

Regarding `C/C=C(\C)C(=O)N[C@@H](c1ccccc1)[C@@H](O)C(=O)O[C@H]1C[C@@]2(O)[C@@H](OC(=O)c3ccccc3)[C@@H]3[C@]4(OC(C)=O)CO[C@@H]4C[C@H](O[C@@H]4OC[C@@H](O)[C@H](O)[C@H]4O)[C@@]3(C)C(=O)[C@H](OC(C)=O)C(=C1C)C2(C)C`, the IC50 in assay [1] was 2.2 µM; in assay [10], 7.2 µM; in [2], 0.029 µM; in assay [11], 5.8 µM; in assay [3], greater than 25 µM; in assay [4], 17 µM. Further, the IC50 in assay [5], in assay [6], in assay [7], in assay [8] and in assay [9] was greater than 25 µM in each case.

With `C=C1[C@@H](O)C[C@H](OC(C)=O)[C@@]2(COC(=O)c3ccccc3)[C@@H](OC(C)=O)[C@H](OC(C)=O)[C@@]3(O)[C@]4(C)OC[C@]3(C)C(CC4=O)[C@@H](OC(C)=O)[C@H]12` [TAXININE M], the IC50 was 12 µM in assay [1]; 16 µM in assay [10]; greater than 25 µM in assay [2]; greater than 25 µM in assay [11]; greater than 25 µM in [3]; greater than 25 µM in assay [4]. Also, the IC50 in assay [5], in [6], in assay [7], in [8] and in [9] was greater than 25 µM throughout.

`C=C1[C@@H](OC(=O)C[C@H](c2ccccc2)N(C)C)C[C@H](OC(C)=O)[C@]2(C)[C@@H]1C[C@@H]1C[C@H](OC(C)=O)C(C)=C([C@@H](OC(C)=O)[C@@H]2OC(C)=O)C1(C)C`: the IC50 in assay [1] is 12 µM; in assay [10], greater than 25 µM; in assay [2] it was 0.04 µM; in assay [11], 15 µM; in assay [3] it was 5.1 µM; in [4] it was greater than 25 µM. The IC50 is greater than 25 µM in assay [5]; greater than 25 µM in assay [6]; 14 µM in assay [7]; greater than 25 µM in assay [8]; 10 µM in assay [9].

Consider `C=C1[C@@H](OC(=O)/C=C/c2ccccc2)C[C@H](OC(C)=O)[C@]2(C)[C@@H]1C[C@@H]1C[C@H](OC(C)=O)C(C)=C([C@@H](OC(C)=O)[C@@H]2OC(C)=O)C1(C)C`, for which the IC50 in assay [1] is 9.4 µM; in assay [10] it was greater than 25 µM; in assay [2], greater than 25 µM; in assay [11], greater than 25 µM; in assay [3], 9.7 µM; in assay [4], greater than 25 µM. For the same compound, the IC50 was 11 µM in [5]; 12 µM in assay [6]; 7.1 µM in assay [7]; greater than 25 µM in [8]; 15 µM in assay [9].
